What is called IC50 is the point on the concentration scale where inhibition reaches its midpoint.

Four molecules from patent publication US20250270227A1, “CAMPTOTHECIN DERIVATIVE, AND PHARMACEUTICAL COMPOSITION AND USE THEREOF” (SIMCERE ZAIMING PHARMACEUTICAL CO., LTD., priority 2021, published 2025) can be followed below.

Where two headings read alike, the source gives them in different places.

In one assay the target is CYP2C9 (Homo sapiens (Human), UniProt P11712). The assay can be described thus: Inhibitory effect on CYP enzymatic activity in human liver microsomes. In kind it is in vitro ADME. The method, then:
The inhibition of CYP2C9, CYP2D6 and CYP3A4 enzymatic activities by the compounds of the present disclosure was determined by the following experimental method.
• 1. Human liver microsomes (Corning 452117) • 2. NADPH (Solarbio 705Y021) • 3. Positive substrates diclofenac (Sigma SLBV3438), dextromethorphan (TRC 3-EDO-175-1) and midazolam (Cerilliant FE01161704) • 4. Positive inhibitors sulfaphenazole (D. Ehrenstorfer GmbH 109012), quinidine (TCI WEODL-RE) and ketoconazole (Sigma 100M1091V) • 5. AB Sciex Triple Quad 5500 liquid chromatography-mass spectrometry
• 1. Preparation of 100 mM phosphate buffered saline (PBS): 7.098 g of Na2HPO4 was weighed, 500 mL of pure water was added and subjected to ultrasonic dissolution to obtain solution A. 3.400 g of KH2PO4 was weighed, 250 mL of pure water was added and subjected to ultrasonic dissolution to obtain solution B. Solution A was placed on a stirrer and solution B was slowly added until the pH value reached 7.4 to prepare 100 mM PBS buffer. • 2. Preparation of 10 mM NADPH solution with 100 mM PBS buffer. The 10 mM stock solution of the compound of the present disclosure was diluted with DMSO to obtain a 200× concentration of compound working solution (6000, 2000, 600, 200, 60, 20, 0 μM). The stock solution of positive inhibitors was diluted with DMSO to obtain a 200× concentration of positive inhibitor working solution (sulfaphenazole, 1000, 300, 100, 30, 10, 3, 0 μM; quinidine/ketoconazole, 100, 30, 10, 3, 1, 0.3, 0 μM). A 200× concentration of substrate working solution (120 μM diclofenac, 400 μM dextromethorphan, and 200 μM midazolam) was prepared with water, acetonitrile, or acetonitrile/methanol. • 3. 2 μL of 20 mg/ml liver microsome solution, 1 μL of substrate working solution, 1 μL of compound working solution and 176 μL of PBS buffer were taken, mixed uniformly, and pre-incubated in a 37° C. water bath for 15 min. To the positive control group was added 1 μL of sulfaphenazole, quinidine or ketoconazole working solution instead of compound working solution. A 10 mM NADPH solution was also pre-incubated in the 37° C. water bath for 15 min. After 15 min, 20 μL of NADPH was taken and added to each well to initiate the reaction, and the reaction was incubated at 37° C. for 5 min (CYP2C9), 20 min (CYP2D6) or 5 min (CYP3A4). Double samples were set for all incubation samples. After the corresponding time of incubation, 400 μL of glacial methanol containing internal standard was added to all samples to stop the reaction. The mixture was mixed uniformly by vortex and centrifuged at 3220 g for 40 min at 4° C. After the completion of the centrifugation, 100 μL of the supernatant was transferred to a loading plate, and 100 μL of ultrapure water was added and mixed uniformly for LC-MS/MS analysis.
The reduction in metabolite production in the administration group compared to the control group was compared by the ratio of sample peak area to internal standard peak area, and IC50 value was calculated by Excel XLfit 5.3.1.3.
The percent remaining activity was calculated by the following equation: […]
For orientation: Liver microsomes are a subcellular fraction often used to study metabolism.

The target in assay [1] is hERG potassium ion channel (Homo sapiens (Human), UniProt Q12809). Nature of the assay: hERG inhibitory activity (automated patch clamp, CHO cell line stably expressing hERG). The class given is cell-based. The method, then:
The inhibition of hERG activity by the compounds of the present disclosure was determined by the following experimental method.
A CHO cell line stably expressing hERG ion channel was purchased from B′SYS GmbH (Switzerland). The cells were cultured in F-12 (HAM) medium containing 10% FBS buffer, 100 U/mL penicillin-streptomycin, 100 μg/mL hygromycin and 100 μg/mL G418. Trypsin substitute TrypLE™ Express was used for digestion and passage, passaging three times per week and maintaining about 80% confluence.
Iii. Preparation of Intracellular/Extracellular Fluid and Preparation of Solution of Compound to be Tested
• 1) NMDG 60 standard extracellular fluid: 80 mM sodium chloride, 60 mM NMDG, 4 mM potassium chloride, 2 mM calcium chloride, 1 mM magnesium chloride, 5 mM polyglucose, 10 mM HEPES, pH adjusted to 7.4 with HCl, osmotic pressure 289 mOsm/kg; • 2) NMDG 60 cell sealing solution: 80 mM sodium chloride, 60 mM NMDG, 4 mM potassium chloride, 10 mM calcium chloride, 1 mM magnesium chloride, 5 mM polyglucose, 10 mM HEPES, pH adjusted to 7.4 with HCl, osmotic pressure 313 mOsm/kg; • 3) Chip filling solution: 140 mM sodium chloride, 4 mM potassium chloride, 5 mM polyglucose, 10 mM HEPES, pH adjusted to 7.4 with NaOH, osmotic pressure 289 mOsm/kg; • 4) Standard extracellular fluid: 140 mM sodium chloride, 4 mM potassium chloride, 2 mM calcium chloride, 1 mM magnesium chloride, 5 mM polyglucose, 10 mM HEPES, pH adjusted to 7.4 with NaOH, osmotic pressure 298 mOsm/kg.
KF110 intracellular fluid: 10 mM EGTA, 10 mM HEPES, 10 mM potassium chloride, 10 mM sodium chloride, 110 mM potassium fluoride, pH adjusted to 7.2 with KOH, osmotic pressure greater than 280 mOsm/kg.
• 1) The compound to be tested was dissolved in DMSO and prepared into a stock solution with a final concentration of 10 mM. • 2) The stock solution was subjected to gradient dilution with DMSO as a solvent at a ratio of 1:3 into solutions with other three intermediate concentrations (mM): 3.33, 1.11 and 0.37, respectively. • 3) Before the start of the experiment, the gradient solution of the compound to be tested was diluted again with the extracellular fluid according to a ratio of 1:500 into a series of working solutions with final concentrations of: 20, 6.66, 2.22 and 0.74 (μM), respectively, while the 60 μM working solution was diluted from 10 mM stock solution according to a ratio of 3:500. […]
(hERG is a cardiac potassium channel; its block is linked to QT prolongation.)

Chain of CYP2C9 (P11712 whole entry): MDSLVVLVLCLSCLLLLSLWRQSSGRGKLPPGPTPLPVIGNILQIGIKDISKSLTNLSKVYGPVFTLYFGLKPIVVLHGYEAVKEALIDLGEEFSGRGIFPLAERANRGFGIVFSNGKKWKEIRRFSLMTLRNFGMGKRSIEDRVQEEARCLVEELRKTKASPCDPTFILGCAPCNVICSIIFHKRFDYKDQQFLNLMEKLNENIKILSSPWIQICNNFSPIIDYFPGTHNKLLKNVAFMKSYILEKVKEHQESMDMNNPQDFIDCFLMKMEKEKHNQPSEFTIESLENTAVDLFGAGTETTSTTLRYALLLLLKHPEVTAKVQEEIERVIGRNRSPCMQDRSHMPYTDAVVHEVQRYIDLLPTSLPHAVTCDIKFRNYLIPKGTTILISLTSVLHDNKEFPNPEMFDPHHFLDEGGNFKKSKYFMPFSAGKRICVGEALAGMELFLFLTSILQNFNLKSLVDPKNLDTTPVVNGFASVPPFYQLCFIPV
Chain of hERG potassium ion channel (Q12809 whole entry): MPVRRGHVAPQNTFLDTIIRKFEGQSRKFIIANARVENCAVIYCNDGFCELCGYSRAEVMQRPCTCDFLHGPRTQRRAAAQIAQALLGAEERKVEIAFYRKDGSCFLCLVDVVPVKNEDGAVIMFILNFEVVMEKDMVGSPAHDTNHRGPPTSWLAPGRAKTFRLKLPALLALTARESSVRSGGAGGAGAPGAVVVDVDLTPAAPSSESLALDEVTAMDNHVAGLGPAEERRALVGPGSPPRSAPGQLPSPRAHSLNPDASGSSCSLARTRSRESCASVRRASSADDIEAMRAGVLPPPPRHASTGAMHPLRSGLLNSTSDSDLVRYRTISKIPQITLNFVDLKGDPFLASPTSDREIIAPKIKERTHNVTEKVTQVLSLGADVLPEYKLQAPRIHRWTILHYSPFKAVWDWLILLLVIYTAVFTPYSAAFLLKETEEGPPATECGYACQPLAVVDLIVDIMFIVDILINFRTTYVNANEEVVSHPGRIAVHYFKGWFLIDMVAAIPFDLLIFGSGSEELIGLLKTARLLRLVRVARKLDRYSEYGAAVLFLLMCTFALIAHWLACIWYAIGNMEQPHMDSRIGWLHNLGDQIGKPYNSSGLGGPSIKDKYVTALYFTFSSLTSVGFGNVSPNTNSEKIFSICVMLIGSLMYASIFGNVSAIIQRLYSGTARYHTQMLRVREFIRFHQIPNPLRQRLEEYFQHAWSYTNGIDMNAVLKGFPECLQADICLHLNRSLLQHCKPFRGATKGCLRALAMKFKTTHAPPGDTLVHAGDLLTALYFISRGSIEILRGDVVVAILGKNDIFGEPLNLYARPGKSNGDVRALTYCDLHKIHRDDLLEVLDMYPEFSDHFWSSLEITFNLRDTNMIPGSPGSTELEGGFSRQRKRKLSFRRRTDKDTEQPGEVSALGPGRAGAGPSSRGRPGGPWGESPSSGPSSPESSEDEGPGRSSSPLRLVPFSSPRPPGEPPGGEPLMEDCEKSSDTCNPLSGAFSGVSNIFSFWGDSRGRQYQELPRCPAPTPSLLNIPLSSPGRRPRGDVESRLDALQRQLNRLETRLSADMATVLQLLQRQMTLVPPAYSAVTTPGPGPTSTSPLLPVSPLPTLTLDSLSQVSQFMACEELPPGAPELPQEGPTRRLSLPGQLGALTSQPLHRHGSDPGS

As to `CC[C@@]1(O)C(=O)OCc2c1cc1n(c2=O)Cc2c-1nc1cc3c(cc1c2CNC(=O)C(O)C1CC1)OCO3` (single isomer, unassigned) [Compound 14-P1], the IC50 on CYP2C9 is greater than 50 µM; in assay [1], greater than 30 µM.

On to `CC[C@@]1(O)C(=O)OCc2c1cc1n(c2=O)Cc2c-1nc1cc3c(cc1c2CNC(=O)C(O)C1CC1)OCO3` (single isomer, unassigned) [Compound 14-P2], for which the IC50 at CYP2C9 (read-out: Inhibition on CYP2C9 IC50, human liver microsomes, substrate diclofenac) is greater than 50 µM; in assay [1] (read-out: hERG potassium ion channel inhibitory activity IC50, CHO-hERG, SyncroPatch 384i, 0.37-30 μM), greater than 30 µM.

Take `CC[C@@]1(O)C(=O)OCc2c1cc1n(c2=O)Cc2c-1nc1cc3c(c(F)c1c2CNC(=O)[C@@H](O)C1CC1)OCO3` (single isomer, unassigned) [Compound 37-P1]: the concentration for half-maximal inhibition (IC50) was greater than 50 µM on CYP2C9 and greater than 30 µM in assay [1].

As to `[2H]C1([2H])Oc2cc3nc4c(c(CNC(=O)C(O)C5CC5)c3cc2O1)Cn1c-4cc2c(c1=O)COC(=O)[C@]2(O)CC` (stereo partly drawn) [Compound 39, 2-cyclopropyl-N-(((S)-7-ethyl-7-hydroxy-8,11-dioxo-7,8,11,13-tetrahydro-10H-[1,3]dioxolo[4,5-g]pyrano[3′,4′:6,7]indolizino[1,2-b]quinolin-14-yl-2,2-d2)methyl)-2-hydroxyacetamide], the IC50 against CYP2C9 was greater than 50 µM; in assay [1], greater than 30 µM.
